{
  "source": "patent US7449453B2",
  "about": "“Compositions of ezetimibe and methods for the treatment of cholesterol-associated benign and malignant tumors” (Karykion Inc., priority 2002, dated 2008)",
  "key": {"[1]": {"test_system": "LNCaP cells transfected with HB-EGF", "test": "SCID mice transplanted subcutaneously with LNCaP cells transfected with HB-EGF, high cholesterol diet", "assay_type": "in vivo", "settings": "for tumor growth and progression vs untreated controls: 10 mg/kg body weight in diet, started 2 weeks after implantation, 6-12 weeks of treatment, intact and castrated animals; for tumor volumes: progression and growth of the implanted tumors vs untreated controls: 30 mg/kg of body weight, started 2 weeks after tumor implantation, after 12 weeks, high cholesterol diet", "from_the_text": "Prostate cancer is a leading cause of mortality in males in North America with between 30,000 to 40,000 deaths per year in the United States. While chemotherapy has not been very efficacious in the treatment of prostate cancer, an alternative approach has been to target prostate cancer cell survival pathways, particularly the PI3 kinase/Akt/PTEN signaling axis, which has been identified as an important cell survival mechanism in PCa and other cancers. Recently it has been determined that membrane cholesterol is an important component of a mechanism that transfers survival signals from the cell exterior to the Akt1 serine-threonine kinase. It has also been shown recently that elevated serum cholesterol accelerates the growth, lowers the extent of cellular apotosis, and increases the level of Akt activation in prostate tumors within a murine prostate cancer model. Findings indicate that cholesterol plays a critical role in the ability of prostate cancer cells to resist apoptotic stimuli. The role of cholesterol in prostate cancer cell survival is so critical that drugs that bind cholesterol (polyene macrolides), extract cholesterol from membranes (cyclodextrin) or block cholesterol synthesis (statins) all alter essential membranes (lipid rafts) and reduce their capacity to regulate cell signaling. Cholesterol plays a crucial role in specifically regulating prostate cancer growth and survival. In these studies a unique prostate murine model system is used. This model features the human prostate adenocarcinoma cell line, LNCaP transfected with HB-EGF. LNCAP cells resemble typical prostate tumor cells in their general morphology, production of PSA and PTEN null status. Stable transfection with HB-EGF, a physiologically relevant EGFR ligand that originates in the prostatic stroma, permits LNCaP cells to form tumors in vivo in an androgen—independent manner. Subcutaneous implantation of these LNCaP cells into 4 quadrants of SCID mice results in rapid tumor growth in intact and castrated mice over an eight week period. […] Mice placed on a high cholesterol diet 4 weeks prior to tumor implantation are started on ezetimibe and SCH 48461 @ 30 mg/kg of body weight 2 weeks after tumor implantation.\nSubcutaneous implantations of LNCaP cells into 4 quadrants of SCID mice (2×10^6 cells in 150 ul Matrigel per injection site) results in rapid tumor growth in intact and castrated hosts on a high cholesterol diet over an 8 week period. Two weeks after tumor cell implantation, the animals are given ezetimibe in their diet at 10 mg/kg body weight."}, "[2]": {"settings": "cited from earlier work; for serum cholesterol levels: mice fed a low cholesterol diet; for elevated serum cholesterol levels: mice, induced by high cholesterol diets"}, "[3]": {"test_system": "BIO 87.20 male Syrian hamster", "test": "Ezetimibe treatment of BIO 87.20 male Syrian hamsters that develop spontaneous cystic prostatic hypertrophy and other tumors", "assay_type": "in vivo", "from_the_text": "The BIO 87.20 male Syrian hamster is a well-known inbred line that develops, spontaneously, an age-dependent and genetic related cystic prostatic hypertrophy and is recognized in the art as an excellent model for human prostate disease. See, e.g., Homburger et al., 1970, Proc. Soc. Exptl. Biol. Med., 134:284-286; Homburger, 1972, Health Lab Sci., 9:103-111; Wang et al., 1976, Invest. Urol., 14:66-71. The BIO 87.20 strain of hamster develops multiple tumors after 12 months of age.\nThe stromal hyperplasia and changes in the epithelial cells are also observed upon microscopic examination. […] The BIO 87.20 and BIO 1.5 strains of male Syrian hamster are employed in the ezetimibe studies presented herein. […] Schaffner et al., Lipids 16:835-840 (1981). The defect in cholesterol synthesis and the development of cystic prostatic hypertrophy in the BIO 87.20 male hamster is related.\n16 BIO 1.5 and 48 BIO 87.20 male Syrian hamsters are obtained from Bio Breeders, Inc. Boston, Mass. Among these animals, 8 BIO 1.5 and 24 BIO 87.20 hamsters are 6 months of age, while the remainder, consisting of […] and 24 BIO 87.20 hamsters, are 12 months of age. The animals are housed in individual cages. All animals are given water ad libitum and are housed under automatic regime of 12 hours artificial light and 12 hours darkness. Food consumption is be monitored to ensure equivalent intake in all animals. The drug, ezetimibe, is powdered and mixed into ground PURINA® hamster chow. Concentrations of ezetimibe, in the food, is adjusted according to quantity of food intake per hamster per day and expressed as average μg of ezetimibe per kg body weight per day.\nThe animals are divided into 8 experimental groups containing 8 animals each. The groups may be characterized as follows:\nControl BIO 1.5 and control and treated BIO 87.20 male Syrian hamsters, both 6 and 12 months of age, are used as follows. In the treated group of BIO 87.20 male Syrian hamsters, ezetimibe is administered as a powder in the diet. Treatment with doses of ezetimibe of 100 and 1000 micrograms per kilogram body weight of the BIO 87.20 animals is continued for 6 months. […] After 6 months of treatment the animals are sacrificed and the prostate glands excised, weighed and preserved for histopathological examination."}, "[4]": {"test_system": "tumor initiation and progression", "settings": "long-term rat studies; cited from earlier work"}, "[5]": {"test_system": "benign prostatic hyperplasia", "settings": "controlled double blind study; cited from earlier work"}},
  "note": "“Also recorded” adds a separate entry of the source.",
  "data": [
    {"molecule": "COc1ccc([C@@H]2[C@@H](CCCc3ccccc3)C(=O)N2c2ccc(OC)cc2)cc1", "note": "[SCH 48461]", "values": [
      {"measurement": "tumor growth and progression vs untreated controls", "setting": "[1]", "value": "significant inhibition of tumor growth and progression"},
      {"measurement": "tumor volumes: progression and growth of the implanted tumors vs untreated controls", "setting": "[1]", "value": "significantly inhibits the progression and growth of the implanted tumors"},
      {"measurement": "serum cholesterol levels", "setting": "[2]", "value": "do not generally affect serum cholesterol levels"},
      {"measurement": "elevated serum cholesterol levels", "setting": "[2]", "value": "do lower elevated serum cholesterol levels"}
    ]},
    {"molecule": "O=C1N(c2ccc(F)cc2)[C@H](c2ccc(O)cc2)C12CCC(O)(c1ccc(Cl)cc1)CC2", "note": "(single isomer, unassigned; (+)) [SCH 58053, (+)-7-(4-chlorophenyl)-2-(4-flourophenyl)-7-hydroxy-3R-(4-hydroxyphenyl)-2-azaspiro[3,5]nonan-1-one]", "values": [
      {"measurement": "serum cholesterol levels", "setting": "[2]", "value": "do not generally affect serum cholesterol levels"},
      {"measurement": "elevated serum cholesterol levels", "setting": "[2]", "value": "do lower elevated serum cholesterol levels"}
    ]},
    {"molecule": "O=C1[C@H](CC[C@H](O)c2ccc(F)cc2)[C@@H](c2ccc(O)cc2)N1c1ccc(F)cc1", "note": "[ezetimibe, 1-(4-fluorophenyl)-(3R)-[3-(4-fluorophenyl)-(3S)-hydroxypropyl]-(45)-(4-hydroxyphenyl)-2-azetidinone]", "values": [
      {"measurement": "effect of higher dose on inhibition and reversal of the prostate enlargement", "setting": "[3]; 1000 μg/kg body weight", "value": "greater effect on the inhibition and reversal of the prostate enlargement"},
      {"measurement": "inhibitory effect on size increase of the prostate gland, higher vs lower dose", "setting": "[3]; 1000 μg/kg body weight, beginning at 6 months of age, 6 months", "value": "greater inhibitory effect on size increase of the prostate gland"},
      {"measurement": "level of effect on ventral prostate weights, higher vs lower dose", "setting": "[3]; 1000 vs 100 μg/kg body weight, beginning at 12 months of age, 6 months", "value": "significantly greater at the higher dosage"},
      {"measurement": "tumors at the end of the experiment vs BIO 87.20 control animals of the same age", "setting": "[3]; as referred to Example II", "value": "no tumors"},
      {"measurement": "cystic prostatic hypertrophy on histopathological examination vs untreated controls", "setting": "[3]; beginning at 6 months of age, after 6 months of treatment", "value": "marked reduction in the cystic prostatic hypertrophy"},
      {"measurement": "established prostatic enlargement (reversal)", "setting": "[3]; beginning at 12 months of age, enlargement already present", "value": "reverses the prostatic enlargement"},
      {"measurement": "miscellaneous tumors other than that of the prostate gland", "setting": "[3]; oral 1000 μg/kg body weight, beginning at 12 months of age, 6 months", "value": "very few tumors are observed"},
      {"measurement": "development of cystic prostatic hypertrophy", "setting": "[3]; oral route", "value": "inhibits the development of cystic prostatic hypertrophy"},
      {"measurement": "other cholesterol-associated tumor formation", "setting": "[3]; summary statement, dose not given", "value": "inhibits other cholesterol-associated tumor formation"},
      {"measurement": "histology of the prostates on histopathological examination", "setting": "[3]; treated BIO 87.20 compared with BIO 1.5 prostate sections", "value": "more normal histology"},
      {"measurement": "prostatic enlargement / prostate gland volume vs untreated control BIO 87.20", "setting": "[3]; treatment beginning at 6 months of age, 6 months, 100 and 1000 μg/kg body weight in diet", "value": "inhibits prostatic enlargement; also recorded: marked inhibitory effect on the prostate gland volume"},
      {"measurement": "prostatic mass or volume / excised ventral prostate weights vs untreated BIO 87.20 controls", "setting": "[3]; treatment beginning at 12 months of age, 6 months, 100 and 1000 μg/kg body weight", "value": "reduces the prostatic mass or volume; also recorded: markedly reduced"},
      {"measurement": "tumor growth and progression vs untreated controls", "setting": "[1]", "value": "marked inhibition of tumor growth and progression"},
      {"measurement": "tumor volumes: progression and growth of the implanted tumors vs untreated controls", "setting": "[1]", "value": "significantly inhibits the progression and growth of the implanted tumors"},
      {"measurement": "serum cholesterol levels", "setting": "[2]", "value": "do not generally affect serum cholesterol levels"},
      {"measurement": "elevated serum cholesterol levels", "setting": "[2]", "value": "do lower elevated serum cholesterol levels"}
    ]},
    {"molecule": "candicidin", "values": [
      {"measurement": "tumor initiation and progression vs untreated controls", "setting": "[4]", "value": "inhibit tumor initiation and progression"}
    ]},
    {"molecule": "CC[C@H](CC[C@@H](C)[C@H]1CC[C@H]2[C@@H]3CC=C4C[C@@H](O)CC[C@]4(C)[C@H]3CC[C@]12C)C(C)C", "note": "[beta-sitosterol]", "values": [
      {"measurement": "effectiveness in the treatment of benign prostatic hyperplasia", "setting": "[5]", "value": "effective"}
    ]}
  ]
}
